From ChEMBL document CHEMBL1156986, “Derivatives of schisandrin with increased inhibitory potential on prostaglandin E(2) and leukotriene B(4) formation in vitro” (Bioorg Med Chem, 2010)
Activity calls are given as the source filed them. The calls are words filed in the database; no cut-off is given here.

Experiments:
[1] = target: T1, Prostaglandin G/H synthase 1 (Ovis aries) (UniProt P05979); assay: Inhibition of ram seminal vesicle COX1 at 50 uM assessed as PGE2 concentration
T1 sequence (whole entry): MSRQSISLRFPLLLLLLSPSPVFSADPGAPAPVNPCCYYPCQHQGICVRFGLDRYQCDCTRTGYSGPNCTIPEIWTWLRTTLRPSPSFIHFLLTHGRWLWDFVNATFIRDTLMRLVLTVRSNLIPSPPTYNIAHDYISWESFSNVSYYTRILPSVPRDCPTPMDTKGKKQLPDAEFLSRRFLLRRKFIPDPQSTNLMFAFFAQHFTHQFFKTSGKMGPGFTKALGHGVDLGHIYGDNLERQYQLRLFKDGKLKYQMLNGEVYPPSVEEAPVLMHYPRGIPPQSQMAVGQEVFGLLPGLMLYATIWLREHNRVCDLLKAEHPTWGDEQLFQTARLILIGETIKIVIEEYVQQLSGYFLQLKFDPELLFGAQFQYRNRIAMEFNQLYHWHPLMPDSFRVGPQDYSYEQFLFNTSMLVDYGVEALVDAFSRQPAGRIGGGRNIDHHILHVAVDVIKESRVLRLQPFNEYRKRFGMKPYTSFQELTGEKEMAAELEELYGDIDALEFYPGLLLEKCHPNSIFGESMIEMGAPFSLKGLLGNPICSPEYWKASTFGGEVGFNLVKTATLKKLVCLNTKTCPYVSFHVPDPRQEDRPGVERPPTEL

[2] = target: T2, Prostaglandin G/H synthase 2 (Ovis aries) (UniProt P79208); assay: Inhibition of ram seminal vesicle COX2 at 50 uM assessed as PGE2 level by EIA; assay type: tissue-based
T2 sequence (whole entry): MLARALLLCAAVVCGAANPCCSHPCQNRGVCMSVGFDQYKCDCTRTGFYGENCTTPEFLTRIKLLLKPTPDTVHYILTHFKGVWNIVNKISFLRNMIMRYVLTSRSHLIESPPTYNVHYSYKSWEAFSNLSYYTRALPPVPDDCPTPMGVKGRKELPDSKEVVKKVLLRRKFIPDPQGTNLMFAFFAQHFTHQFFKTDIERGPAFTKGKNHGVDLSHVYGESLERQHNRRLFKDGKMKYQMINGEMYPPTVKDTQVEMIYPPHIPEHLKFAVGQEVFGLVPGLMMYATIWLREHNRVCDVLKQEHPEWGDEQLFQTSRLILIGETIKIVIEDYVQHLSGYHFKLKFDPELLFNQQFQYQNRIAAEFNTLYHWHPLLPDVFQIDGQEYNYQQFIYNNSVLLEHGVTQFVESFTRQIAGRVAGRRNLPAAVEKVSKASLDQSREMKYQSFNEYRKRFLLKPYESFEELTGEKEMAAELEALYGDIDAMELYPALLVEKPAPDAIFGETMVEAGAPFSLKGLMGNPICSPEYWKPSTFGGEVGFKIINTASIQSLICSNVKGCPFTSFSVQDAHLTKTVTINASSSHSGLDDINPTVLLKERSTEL

[3] = target: T3, Polyunsaturated fatty acid 5-lipoxygenase (Homo sapiens) (UniProt P09917); assay: Inhibition of 5-LOX-mediated LTB4 production from stimulated human neutrophile granulocytes at 50 uM after 10 mins by EIA
T3 sequence (whole entry): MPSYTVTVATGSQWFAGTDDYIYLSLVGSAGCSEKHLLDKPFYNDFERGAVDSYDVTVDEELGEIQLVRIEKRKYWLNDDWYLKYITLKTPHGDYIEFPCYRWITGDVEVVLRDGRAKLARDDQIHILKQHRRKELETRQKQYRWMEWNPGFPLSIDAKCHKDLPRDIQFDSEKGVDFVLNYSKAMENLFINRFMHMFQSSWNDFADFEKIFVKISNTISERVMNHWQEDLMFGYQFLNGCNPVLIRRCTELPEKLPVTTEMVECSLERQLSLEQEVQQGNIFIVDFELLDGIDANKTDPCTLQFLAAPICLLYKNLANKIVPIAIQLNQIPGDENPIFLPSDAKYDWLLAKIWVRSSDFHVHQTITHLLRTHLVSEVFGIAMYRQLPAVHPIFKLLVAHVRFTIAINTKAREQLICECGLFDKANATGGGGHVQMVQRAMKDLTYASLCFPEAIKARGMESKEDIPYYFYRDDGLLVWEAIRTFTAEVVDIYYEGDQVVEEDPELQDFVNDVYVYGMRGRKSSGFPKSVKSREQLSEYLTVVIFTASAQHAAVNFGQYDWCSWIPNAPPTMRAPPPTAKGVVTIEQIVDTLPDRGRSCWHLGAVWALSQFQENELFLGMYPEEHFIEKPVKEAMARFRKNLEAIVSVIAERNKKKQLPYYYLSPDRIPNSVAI

[4] = target: T4, Polyunsaturated fatty acid 5-lipoxygenase (Homo sapiens, UniProt P09917); assay: Inhibition of 5-LOX-mediated LTB4 production in stimulated human neutrophile granulocytes after 10 mins by EIA
T4 sequence (P09917 whole entry): T3 sequence (whole entry)

[5] = target: T5, Prostaglandin G/H synthase 2 (Ovis aries, UniProt P79208); assay: Inhibition of sheep placental cotyledens COX2 assessed as PGE2 level by EIA
T5 sequence (P79208 whole entry): T2 sequence (whole entry)

Row | Structure (SMILES) | inhibition [1] | inhibition [2] | inhibition [3] | IC50 [4] | IC50 [5]
1 | COc1cc2c(c(O)c1O)-c1c(cc(OC)c(O)c1O)C[C@](C)(O)[C@@H](C)C2 | inactive | inactive |  |  | 
2 | COc1cc2c(c(OC)c1OC)-c1c(cc3c(c1OC)OCO3)C[C@H](C)[C@](C)(O)C2 | inactive | inactive | inactive |  | 
3 | COc1cc2c(c(O)c1O)-c1c(cc(OC)c(O)c1O)CC(C)(C(C)O)C2 (stereo unspecified) | inactive |  |  | 4.2 µM | 
4 | CC(O)C1(C)Cc2cc(O)c(O)c(O)c2-c2c(cc(O)c(O)c2O)C1 (stereo unspecified) | inactive |  | 37.3% |  | 32.1 µM
5 | C/C=C(/C)C(=O)Oc1c(OC)c(OC)cc2c1-c1c(cc(OC)c(OC)c1OC)C[C@](C)(O)[C@@H](C)C2 | inactive | inactive | inactive |  | 
6 | COc1cc2c(c(OC)c1OC)-c1c(cc(OC)c(OC)c1OC)CC(C)(C(C)I)C2 (stereo unspecified) | inactive |  |  | 4.5 µM | 
7 | C/C=C(\C)C(=O)Oc1c(OC)c(OC)cc2c1-c1c(cc(OC)c(OC)c1OC)C[C@](C)(O)[C@@H](C)C2 | inactive | inactive | inactive |  | 
8 | COc1cc2c(c(OC)c1OC)-c1c(cc(OC)c(OC)c1OC)C[C@](C)(O)[C@@H](C)C2 | inactive | inactive | inactive |  | 
